Key:
Type in all cases: cell-based, human
PC-3 cells = experiment: WST-1 cell proliferation assay, PC-3; details: for IC50: Homo sapiens, PC-3, 72 h, WST-1, three days of exposure, mean ± SD, n = 3; for IC50 (Silibinin)/IC50(Derivative) PC-3: fold potency relative to silibinin
Experimental: (§1) The in vitro antiproliferative activities of six 7-O-substituted and 26 3-O-substituted silybin derivatives were evaluated using the WST-1 cell proliferation assay, according to the procedure as described in the Experimental Section in both androgen-sensitive (LNCaP) and androgen-insensitive (PC-3 and DU145) human prostate cancer cell lines. Silibinin and docetaxel were used as a positive control for comparison in the parallel experiments and the IC50 values calculated from the dose-response curves are summarized in Table 1. […] A three-carbon linker in 11 and 29, as well as a five-carbon linker in 31, 37 and 40, are beneficial to the potency.
(§2) All cell lines were initially purchased from American Type Culture Collection (ATCC^TM) (Manassas, VA, USA). The PC-3 and LNCaP prostate cancer cell lines were routinely cultured in RPIM-1640 medium supplemented with 10% FBS and 1% penicillin/streptomycin. The DU145 prostate cancer cells were routinely cultured in Eagle’s Minimum Essential Medium (EMEM) supplemented with 10% FBS and 1% penicillin/streptomycin. Cultures were maintained in a high humidity environment supplemented with 5% carbon dioxide at a temperature of 37 °C.
(§3) PC-3, DU145, or LNCaP cells were plated in 96-well plates at a density of 3,200 per well in 200 µL of culture medium. The cells were then separately treated with silibinin, or synthesized silibinin derivatives, at five different doses for three days, while equal treatment volumes of DMSO (0.25%) were used as the vehicle control. The cells were cultured in a CO2 incubator at 37 °C for three days. A total of 10 µL of the premixed WST-1 cell proliferation reagent (Clontech) was added to each well. After mixing gently for one min on an orbital shaker, the cells were incubated for an additional 3 h at 37 °C. To ensure a homogeneous distribution of color, it is important to mix gently on an orbital shaker for one min. The absorbance of each well was measured using a microplate reader (Synergy HT, BioTek, Winooski, VT, USA) at a wavelength of 430 nm. […] For calculating the IC50 values, a linear proliferative inhibition was made based on at least five dosages for each compound.

DU145 cells = experiment: WST-1 cell proliferation assay, DU145; details: for IC50: Homo sapiens, DU-145, 72 h, WST-1, three days of exposure, mean ± SD, n = 3; for IC50 (Silibinin)/IC50(Derivative) DU145: fold potency relative to silibinin
Experimental: as §1, §2, §3

LNCaP cells = experiment: WST-1 cell proliferation assay, LNCaP; details: for IC50: Homo sapiens, LNCaP, 72 h, WST-1, three days of exposure, mean ± SD, n = 3; for IC50 (Silibinin)/IC50(Derivative) LNCaP: fold potency relative to silibinin
Experimental: as §1, §2, §3

| IC50 (PC-3 cells) [µM] | IC50 (Silibinin)/IC50(Derivative) PC-3 (PC-3 cells) | IC50 (DU145 cells) [µM] | IC50 (Silibinin)/IC50(Derivative) DU145 (DU145 cells) | IC50 (LNCaP cells) [µM] | IC50 (Silibinin)/IC50(Derivative) LNCaP (LNCaP cells) | Compound |
| --- | --- | --- | --- | --- | --- | --- |
| 3.77 ± 0.41 | 19 | 3.07 ± 0.51 | 30 | 3.84 ± 0.51 | 11 | CCCCN(CCCC)CCCCOc1c(-c2ccc3c(c2)OC(c2ccc(OC)c(OC)c2)C(CO)O3)oc2cc(OC)cc(OC)c2c1=O (stereo not drawn) [Compound 30] |
| 25.7 ± 3.39 | 3 | 19.4 ± 0.88 | 5 | 16.4 ± 3.47 | 3 | COc1ccc(C2Oc3cc(-c4oc5cc(OCCCN6CCN(C)CC6)cc(OC)c5c(=O)c4OC)ccc3OC2CO)cc1OC (stereo not drawn) [Compound 14] |
| 26.5 ± 1 | 3 | 45.1 ± 11.5 | 2 | 12.7 ± 6.28 | 3 | COc1ccc(C2Oc3cc(-c4oc5cc(OCCCN6CCOCC6)cc(OC)c5c(=O)c4OC)ccc3OC2CO)cc1OC (stereo not drawn) [Compound 13] |
| 9.92 ± 0.43 | 7 | 8.62 ± 0.32 | 11 | 7.49 ± 0.16 | 6 | CCN(CC)CCCOc1cc(OC)c2c(=O)c(OC)c(-c3ccc4c(c3)OC(c3ccc(OC)c(OC)c3)C(CO)O4)oc2c1 (stereo not drawn) [Compound 10] |
| 2.95 ± 0.76 | 25 | 5.9 ± 1.3 | 16 | 3.92 ± 1.67 | 11 | COc1cc(OC)c2c(=O)c(OCCCCCN3CCCC3)c(-c3ccc4c(c3)OC(c3ccc(OC)c(OC)c3)C(CO)O4)oc2c1 (stereo not drawn) [Compound 34] |
| 5.76 ± 1.36 | 11 | 8.18 ± 0.42 | 8 | 5.19 ± 2.08 | 13 | CCN(CC)CCCCOc1c(-c2ccc3c(c2)OC(c2ccc(OC)c(OC)c2)C(CO)O3)oc2cc(OC)cc(OC)c2c1=O (stereo not drawn) [Compound 24] |
| 6.41 ± 0.4 | 11 | 6.64 ± 0.54 | 14 | 6.33 ± 0.34 | 7 | CCN(CC)CCCCCOc1c(-c2ccc3c(c2)OC(c2ccc(OC)c(OC)c2)C(CO)O3)oc2cc(OC)cc(OC)c2c1=O (stereo not drawn) [Compound 25] |
| 9.98 ± 4.94 | 7 | > 50 | <2 | 11.4 ± 5.91 | 4 | COc1cc(OC)c2c(=O)c(OCCCN3CCNCC3)c(-c3ccc4c(c3)OC(c3ccc(OC)c(OC)c3)C(CO)O4)oc2c1 (stereo not drawn) [Compound 41] |
| 5.3 ± 0.66 | 14 | 6.85 ± 0.77 | 14 | 4.58 ± 1.77 | 10 | COc1cc(OC)c2c(=O)c(OCCCCN3CCNCC3)c(-c3ccc4c(c3)OC(c3ccc(OC)c(OC)c3)C(CO)O4)oc2c1 (stereo not drawn) [Compound 42] |
| 24.1 ± 10.6 | 3 | 67 ± 13.7 | 1 | 27.3 ± 5.42 | 2 | COc1cc(OC)c2c(=O)c(OCCCCN3CCCCC3)c(-c3ccc4c(c3)OC(c3ccc(OC)c(OC)c3)C(CO)O4)oc2c1 (stereo not drawn) [Compound 36] |
| 8.45 ± 2.89 | 9 | 18.6 ± 7.67 | 5 | 12.8 ± 7.8 | 3 | COc1cc(OC)c2c(=O)c(OCCCN3CCN(C)CC3)c(-c3ccc4c(c3)OC(c3ccc(OC)c(OC)c3)C(CO)O4)oc2c1 (stereo not drawn) [Compound 44] |
| 2.37 ± 0.7 | 31 | 7.26 ± 1.12 | 13 | 2.28 ± 0.42 | 19 | COc1cc(OC)c2c(=O)c(OCCCN3CCCCC3)c(-c3ccc4c(c3)OC(c3ccc(OC)c(OC)c3)C(CO)O4)oc2c1 (stereo not drawn) [Compound 35] |
| 9.09 ± 1.48 | 8 | 32.7 ± 5.32 | 3 | 20.7 ± 5.34 | 2 | COc1cc(OC)c2c(=O)c(OCCCN(C)C)c(-c3ccc4c(c3)OC(c3ccc(OC)c(OC)c3)C(CO)O4)oc2c1 (stereo not drawn) [Compound 20, 3-O-(N,N-Dimethylamino)propyl-5,7,20-O-trimethyl-2,3-dehydrosilybin] |
| 2.03 ± 0.69 | 36 | 8.39 ± 1.38 | 11 | 3.89 ± 0.54 | 11 | CCCN(CCC)CCCOc1c(-c2ccc3c(c2)OC(c2ccc(OC)c(OC)c2)C(CO)O3)oc2cc(OC)cc(OC)c2c1=O (stereo not drawn) [Compound 26] |
| 0.0019 ± 0.0006 | – | 0.0012 ± 0.0003 | – | 0.0002 ± 0.0001 | – | CC(=O)O[C@@]12CO[C@@H]1C[C@H](O)[C@@]1(C)C(=O)[C@H](O)C3=C(C)[C@@H](OC(=O)[C@H](O)[C@@H](NC(=O)OC(C)(C)C)c4ccccc4)C[C@@](O)([C@@H](OC(=O)c4ccccc4)[C@H]21)C3(C)C [Docetaxel, docetaxel, reference compound] |
| 7.49 ± 1.98 | 10 | 19.8 ± 2.38 | 5 | 8.06 ± 1.44 | 5 | COc1cc(OC)c2c(=O)c(OCCCCN3CCCC3)c(-c3ccc4c(c3)OC(c3ccc(OC)c(OC)c3)C(CO)O4)oc2c1 (stereo not drawn) [Compound 33] |
| 4.72 ± 0.88 | 15 | 8.59 ± 2.23 | 11 | 5.66 ± 0.44 | 8 | COc1cc(OC)c2c(=O)c(OCCCCCN3CCN(C)CC3)c(-c3ccc4c(c3)OC(c3ccc(OC)c(OC)c3)C(CO)O4)oc2c1 (stereo not drawn) [Compound 45] |
| 5.15 ± 2.13 | 14 | 9.97 ± 3.34 | 9 | 5.13 ± 0.89 | 9 | COc1cc(OC)c2c(=O)c(OCCCCN(C)C)c(-c3ccc4c(c3)OC(c3ccc(OC)c(OC)c3)C(CO)O4)oc2c1 (stereo not drawn) [Compound 21] |
| 5.76 ± 1.36 | 13 | 8.13 ± 0.42 | 11 | 5.19 ± 2.08 | 8 | COc1cc(OC)c2c(=O)c(OCCCCCBr)c(-c3ccc4c(c3)OC(c3ccc(OC)c(OC)c3)C(CO)O4)oc2c1 (stereo not drawn) [Compound 19] |
| 25.1 ± 1 | 3 | 19.6 ± 0.47 | 5 | 11 ± 0.99 | 4 | COc1ccc(C2Oc3cc(-c4oc5cc(OCCCN6CCCC6)cc(OC)c5c(=O)c4OC)ccc3OC2CO)cc1OC (stereo not drawn) [Compound 12] |
| 7.87 ± 1.47 | 9 | 48.1 ± 16.3 | 2 | 14.4 ± 7.49 | 3 | COc1cc(OC)c2c(=O)c(OCCCCCN3CCNCC3)c(-c3ccc4c(c3)OC(c3ccc(OC)c(OC)c3)C(CO)O4)oc2c1 (stereo not drawn) [Compound 43] |
| 3.3 ± 0.86 | 22 | 5.78 ± 1.36 | 16 | 2.7 ± 0.47 | 16 | CCCN(CCC)CCCCCOc1c(-c2ccc3c(c2)OC(c2ccc(OC)c(OC)c2)C(CO)O3)oc2cc(OC)cc(OC)c2c1=O (stereo not drawn) [Compound 28] |
| 3.47 ± 2.23 | 21 | 6.73 ± 0.45 | 14 | 5.07 ± 0.52 | 9 | COc1cc(OC)c2c(=O)c(OCCCCCN(C)C)c(-c3ccc4c(c3)OC(c3ccc(OC)c(OC)c3)C(CO)O4)oc2c1 (stereo not drawn) [Compound 22] |
| 2.94 ± 0.13 | 25 | 10.6 ± 0.63 | 9 | 1.74 ± 0.97 | 25 | COc1cc(OC)c2c(=O)c(OCCCN3CCOCC3)c(-c3ccc4c(c3)OC(c3ccc(OC)c(OC)c3)C(CO)O4)oc2c1 (stereo not drawn) [Compound 38] |
| 3.77 ± 0.41 | 19 | 5.39 ± 0.53 | 17 | 4.02 ± 1.55 | 11 | CCCN(CCC)CCCCOc1c(-c2ccc3c(c2)OC(c2ccc(OC)c(OC)c2)C(CO)O3)oc2cc(OC)cc(OC)c2c1=O (stereo not drawn) [Compound 27] |
